Reference: publication PMC6992764 (Nature Communications, 2020)

What was measured:
peritoneal macrophages = test: CCL2-induced pseudopodia protrusion of macrophages; format: cell-based, mice; details: 25 µM, 1 h pre-incubation
Description: Peritoneal macrophages were isolated from mice, seeded in the 8-well glass-based dishes (Life Technologies) and incubated overnight at 37 °C to allow the cells to adhere. After serum starvation for 6 h, cells were stimulated with chemokine at a concentration of 100 ng mL^–1, then fixed with 4% paraformaldehyde (Wako) and permeabilized with 0.1% Triton X-100 (Wako) in PBS, followed by staining with phalloidin conjugated with Alexa Fluor 594 (Life Technologies). […] Tumor macrophages were isolated from collagenase digestion of tumor tissue as attached cells by washing non-adherent cells away and further culturing them in DMEM containing 10 nM M-CSF (BD Biosciences) and 10% serum. After co-culture with LLC tumor cells, confocal images were obtained using an SP5 confocal microscope (Leica Microsystems). Cells were classified as lamellipodial/round-shaped or filopodial based on their morphology and the ratio of each type in the visual field determined.

[1] = tested on: monocyte (CD11b+Gr-1-Ly-6C+) chemotaxis to CCL2; test: Flow cytometry-based chemotaxis assay; format: cell-based, mice; details: 20 µM wortmannin pre-incubation
Description: Bone marrow cells were mechanically flushed from the femurs and tibias of Frount-floxed mice and FROUNT-cKO mice. After incubation in ammonium chloride to lyse red blood cells, nucleated cells were incubated with the following antibodies: PE-conjugated Gr-1 (clone RB6-8C5, dilution 1:400, Cat 553128), Pacific blue-conjugated Ly-6C ([…], dilution 1:400, Cat 128014), and allophycocyanin-conjugated CD11b (clone M1/70, dilution 1:400, Cat 101212). Cells were washed and adjusted to 2 × 10^7 cells mL^−1 in chemotaxis buffer. Cells were pre-incubated with 20 μM wortmannin before the assay as necessary. The chemokines murine CCL2 (Peprotech) were added to the lower chamber and 25 μL of cell suspension was added to the upper chamber of a 5-μm pore-sized chemoTX plate. After incubation at 37 °C under 5% CO2 atmosphere for 90 min, migrated cells were collected and cell populations were determined by surface expression of stained antibody in each population using a Gallios flow cytometer (Beckman coulter). Data are expressed as a migration index (number of migrated cells in the presence of chemoattractant divided by the cell number in the absence of chemokine).

LLC tumor cells [2] = test: LLC tumor cell growth (WST-1 assay); format: cell-based; details: 48 h
Description: (§1) To evaluate the effects of compounds on cell growth, cells were incubated with inhibitors for 48 h, then WST-1 (Dojindo) was added to the culture for the final 30 min. An Envision instrument (PerkinElmer) was used to measure the absorbance of each well at 450 nm versus a 650-nm reference to detect the amount of formazan produced from WST-1 by mitochondrial dehydrogenases in viable cells.

B16 tumor cells [3] = test: B16 tumor cell growth (WST-1 assay); format: cell-based; details: B16, 48 h
Description: as §1

LLC tumor cells [4] = tested on: LLC tumor cells
B16 tumor cells [5] = tested on: B16 tumor cells
[6] = molecular target: T1, Full-length FROUNT protein (Homo sapiens, UniProt Q9BW27); test: Surface plasmon resonance binding to FROUNT; details: SPR, concentration-dependent
T1 construct: made in house
T1 sequence (Q9BW27 1-656): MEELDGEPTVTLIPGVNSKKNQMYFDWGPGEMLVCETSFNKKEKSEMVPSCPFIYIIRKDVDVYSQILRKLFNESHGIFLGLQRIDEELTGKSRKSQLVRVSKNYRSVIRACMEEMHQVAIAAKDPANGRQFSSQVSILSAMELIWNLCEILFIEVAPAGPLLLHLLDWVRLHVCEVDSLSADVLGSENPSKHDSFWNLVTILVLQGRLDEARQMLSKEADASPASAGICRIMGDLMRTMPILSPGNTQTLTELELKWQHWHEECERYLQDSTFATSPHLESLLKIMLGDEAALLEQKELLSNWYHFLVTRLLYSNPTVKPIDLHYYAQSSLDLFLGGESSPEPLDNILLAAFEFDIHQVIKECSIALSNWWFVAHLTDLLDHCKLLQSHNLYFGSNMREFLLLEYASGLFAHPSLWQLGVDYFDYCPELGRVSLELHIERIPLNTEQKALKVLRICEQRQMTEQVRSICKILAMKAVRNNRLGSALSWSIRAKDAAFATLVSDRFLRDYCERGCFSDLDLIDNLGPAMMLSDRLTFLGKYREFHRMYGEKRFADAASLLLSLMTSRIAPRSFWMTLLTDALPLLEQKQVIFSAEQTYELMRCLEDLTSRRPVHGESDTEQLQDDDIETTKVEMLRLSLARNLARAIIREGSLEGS
Description: Interactions between FROUNT and library compounds were analyzed by surface plasmon resonance using a Biacore T100 (GE Healthcare). Full-length FROUNT protein or the FROUNT-binding region of CCR2 was immobilized on the CM5 sensor chip[56]. […] The resonance unit (RU) was measured during the binding and washing periods, and the binding kinetics were analyzed. Solvent correction with DMSO was performed using Biacore T100 evaluation software.

[7] = molecular target: T2, CRBD of FROUNT (a.a. 532-656) bearing the L538E/P612S mutations (Homo sapiens, UniProt Q9BW27, L538E/P612S); test: NMR titration (1H-15N HSQC) of CRBD of FROUNT; format: binding; details: 12.5-50 µM compound, 50 µM CRBD
T2 construct: 50 µM CRBD of FROUNT (a.a. 532–656) bearing the L538E/P612S mutations or its mutant (C603S); made in house
T2 sequence (Q9BW27 532-656 L538E/P612S): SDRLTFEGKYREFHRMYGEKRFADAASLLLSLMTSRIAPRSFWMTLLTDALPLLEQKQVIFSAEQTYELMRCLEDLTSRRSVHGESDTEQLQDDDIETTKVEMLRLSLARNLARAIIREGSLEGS
Description: All ^1H–^15N heteronuclear single quantum correlation (HSQC) NMR spectra were measured at 25 °C on a Bruker 600-MHz AVANCE III spectrometer with a cryogenic probe. […] The assignments of the backbone ^1H^N and ^15N NMR signals of CRBD were performed, based on the previous paper. […] Combined chemical shift differences Δδ was calculated by Δδ = [(ΔδHN)^2 + (ΔδN/6.5)^2]^1/2, where ΔδHN and ΔδN are the chemical shift differences for ^1H^N and ^15N, respectively.

FROUNT-CCR2 interaction = molecular target: T3, FROUNT-CCR2 interaction (Homo sapiens, UniProt Q9BW27); test: HTRF FROUNT-CCR2 interaction assay; format: binding; details: HTRF
T3 construct: GST-fused FROUNT (FNT-C)
T3 sequence (Q9BW27 500-656 limits assumed): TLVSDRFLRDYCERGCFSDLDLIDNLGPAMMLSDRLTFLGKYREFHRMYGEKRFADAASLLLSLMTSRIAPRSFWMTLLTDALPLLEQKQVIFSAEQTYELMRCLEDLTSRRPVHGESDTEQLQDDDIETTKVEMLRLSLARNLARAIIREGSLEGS

THP-1 cells = test: Chemotaxis inhibition assay (chemoTX chamber, CCL2); format: cell-based, human; details: towards CCL2, 90 min
Description: Chemotaxis was measured in a 96-well chemoTX chemotaxis chamber with a polycarbonate filter (5-μm pore size) (Neuro probe). Human CCL2 (R&D Systems) was added to the lower chamber of the plate and the cells were added to the upper chamber. After incubation at 37 °C and 5% CO2 for 90 min, the filter was removed and the number of migrated cells in the lower chamber was counted using a cell counting kit F (Dojindo). Data are expressed as migration efficiency (percentage of the maximal migration).

ALDH = ALDH activity assay (ALDEFLUOR); format: cell-based, human; details: THP-1 cells, 33 µM, 30 min
Description: THP-1 cells were incubated for 30 min with medium containing DMSO or inhibitors at the concentration of 33 μM then washed and incubated with ALDEFLUOR reagent ([…] Technologies) in assay buffer according to the manufacturer’s instruction. Fluorescence derived from substrate metabolized by cellular ALDH were measured by Gallios cytometer.

| SMILES | in vitro growth (LLC tumor cells [2]) | in vitro growth (B16 tumor cells [3]) | viability (LLC tumor cells [4]) | viability (B16 tumor cells [5]) | other results |
| --- | --- | --- | --- | --- | --- |
| COC[C@H]1OC(=O)c2coc3c2[C@@]1(C)C1=C(C3=O)[C@@H]2CCC(=O)[C@@]2(C)C[C@H]1OC(C)=O [wortmannin] |  |  |  |  | CCL2-induced pseudopodia protrusion (peritoneal macrophages): inhibition; migration in response to CCL2 stimulation [1]: inhibited |
| O=c1[nH]cc(F)c(=O)[nH]1 [5FU] | affected | affected | affected | affected |  |
| CCN(CC)C(=S)S [DDC, sodium diethyldithiocarbamate] |  |  |  |  | binding to FROUNT protein [6]: did not bind; chemical shift perturbations in CRBD [7]: no significant perturbation |
| NC(=O)Nc1sc(-c2ccc(F)cc2)cc1C(N)=O [IKK-IV] | affected | affected | affected | affected |  |
| N#CN [cyanamide] |  |  |  |  | inhibition of FROUNT-CCR2 interaction (FROUNT-CCR2 interaction): did not block; cellular chemotaxis (THP-1 cells): did not block; ALDH inhibition activity (ALDH): more potently than DSF |
